“And” between values parts separate entries of the source, which are not always exact repeats. Equal entries are not always repeated. Blank lines part the entries; values can stand above or below the molecule they belong to. The source made the active and inactive calls. No cut-off for these calls is given here.
Legend:
[1] = target: 5-hydroxytryptamine receptor 7 (Rattus norvegicus, UniProt P32305); assay: Displacement of [3H]-CT from rat 5-HT7 receptor expressed in HEK293 cells by competitive radioligand binding assay; type: cell-based
[2] = target: T1, 5-hydroxytryptamine receptor 2A (Homo sapiens, UniProt P28223); assay: Displacement of [3H]-ketanserin from human 5-HT2A receptor by competitive radioligand binding assay
[3] = target: T2, Adrenergic receptor alpha-1 (Rattus norvegicus, UniProt P15823+P23944+P43140); assay: Displacement of […] from alpha1 adrenergic receptor in rat cortex membrane incubated for 60 mins by competitive radioligand binding assay; type: cell membranes
T2 sequence (P15823 whole entry): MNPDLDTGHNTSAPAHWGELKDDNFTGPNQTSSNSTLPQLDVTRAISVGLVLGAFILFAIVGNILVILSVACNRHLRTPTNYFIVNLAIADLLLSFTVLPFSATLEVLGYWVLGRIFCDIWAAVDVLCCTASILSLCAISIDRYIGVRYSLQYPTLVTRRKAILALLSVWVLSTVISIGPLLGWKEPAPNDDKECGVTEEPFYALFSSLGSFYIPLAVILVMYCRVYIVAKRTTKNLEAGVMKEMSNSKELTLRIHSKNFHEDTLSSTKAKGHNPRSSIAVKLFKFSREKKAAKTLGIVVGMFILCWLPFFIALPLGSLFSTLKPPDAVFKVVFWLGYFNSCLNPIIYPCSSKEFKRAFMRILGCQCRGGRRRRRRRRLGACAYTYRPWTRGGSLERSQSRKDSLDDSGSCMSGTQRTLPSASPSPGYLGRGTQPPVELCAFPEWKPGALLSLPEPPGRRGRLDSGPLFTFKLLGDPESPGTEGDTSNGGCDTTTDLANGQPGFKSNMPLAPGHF
T2 sequence (P23944 whole entry): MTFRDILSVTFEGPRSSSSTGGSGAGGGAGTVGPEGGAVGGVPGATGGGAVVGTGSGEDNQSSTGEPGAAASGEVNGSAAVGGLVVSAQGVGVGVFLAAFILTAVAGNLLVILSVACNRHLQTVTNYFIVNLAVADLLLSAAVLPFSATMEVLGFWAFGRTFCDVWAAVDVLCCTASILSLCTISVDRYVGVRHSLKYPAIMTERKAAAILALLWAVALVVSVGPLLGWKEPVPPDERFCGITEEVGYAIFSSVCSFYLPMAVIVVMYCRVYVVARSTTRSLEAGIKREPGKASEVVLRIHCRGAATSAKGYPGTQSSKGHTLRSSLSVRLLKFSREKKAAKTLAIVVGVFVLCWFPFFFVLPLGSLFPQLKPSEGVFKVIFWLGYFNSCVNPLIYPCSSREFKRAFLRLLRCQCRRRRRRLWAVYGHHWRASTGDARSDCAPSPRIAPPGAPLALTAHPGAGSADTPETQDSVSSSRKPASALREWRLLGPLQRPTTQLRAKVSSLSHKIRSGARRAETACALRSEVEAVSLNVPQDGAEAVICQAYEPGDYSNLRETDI
T2 sequence (P43140 whole entry): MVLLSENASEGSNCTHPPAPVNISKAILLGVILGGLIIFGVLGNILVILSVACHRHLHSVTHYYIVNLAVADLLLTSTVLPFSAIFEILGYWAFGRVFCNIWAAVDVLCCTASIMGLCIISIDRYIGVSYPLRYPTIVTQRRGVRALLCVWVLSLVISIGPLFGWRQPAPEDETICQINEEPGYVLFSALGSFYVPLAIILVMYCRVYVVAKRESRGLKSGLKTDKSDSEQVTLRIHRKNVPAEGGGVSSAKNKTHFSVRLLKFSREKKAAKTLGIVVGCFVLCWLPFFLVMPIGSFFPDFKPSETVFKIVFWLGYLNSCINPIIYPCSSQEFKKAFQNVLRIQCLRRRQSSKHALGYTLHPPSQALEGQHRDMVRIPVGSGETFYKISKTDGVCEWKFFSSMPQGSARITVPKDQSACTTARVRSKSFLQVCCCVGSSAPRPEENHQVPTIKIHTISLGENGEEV

[4] = target: 5-hydroxytryptamine receptor 2B (Homo sapiens, UniProt P41595); assay: Displacement of [3H]-ketanserin from human 5-HT2B receptor by competitive radioligand binding assay
[5] = target: T3, 5-hydroxytryptamine receptor 2C (Homo sapiens, UniProt P28335); assay: Displacement of [3H]-ketanserin from human 5-HT2C receptor by competitive radioligand binding assay
T3 sequence (P28335 whole entry): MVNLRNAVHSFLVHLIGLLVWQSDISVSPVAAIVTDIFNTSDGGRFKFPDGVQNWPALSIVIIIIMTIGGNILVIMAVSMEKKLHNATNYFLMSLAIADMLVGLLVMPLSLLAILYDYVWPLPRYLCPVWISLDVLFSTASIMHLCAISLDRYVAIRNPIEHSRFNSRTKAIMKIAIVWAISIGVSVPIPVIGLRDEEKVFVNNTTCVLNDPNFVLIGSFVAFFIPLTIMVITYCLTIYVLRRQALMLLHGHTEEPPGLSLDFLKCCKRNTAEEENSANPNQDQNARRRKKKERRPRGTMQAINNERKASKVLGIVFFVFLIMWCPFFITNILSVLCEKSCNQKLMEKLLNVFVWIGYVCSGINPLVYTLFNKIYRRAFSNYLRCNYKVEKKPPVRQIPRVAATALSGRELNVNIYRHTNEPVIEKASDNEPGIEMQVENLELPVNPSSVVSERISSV

[6] = Cmax in rat brain at 10 mg/kg, po; type: ADME, organism-based; design: route oral, dose 10 mg/kg
[7] = Half life in rat brain at 10 mg/kg, po; type: ADME, organism-based
[8] = Half life in dog at 10 mg/kg, po; type: ADME, organism-based, Canis lupus familiaris; conditions: in vivo
[9] = AUC in rat plasma at 10 mg/kg, po; type: ADME, organism-based; design: dose 10 mg/kg
[10] = Oral bioavailability in rat; type: ADME, organism-based; conditions: in vivo
[11] = Oral bioavailability in mouse; type: ADME, organism-based; conditions: in vivo
[12] = Ratio of plasma concentration that yields to require for inhibition of alpha1 adrenergic receptor-mediated mydriasis in phenylephrine-stimulated rat to MED for inhibition of 5-HT7 receptor mediated hypothermia in po dosed 5-CT-stimulated rat; type: organism-based
[13] = Toxicity in rat assessed as effect on body temperature at 0.03 to 1 mg/kg, po; type: organism-based; conditions: in vivo, dose 0.03-1 mg/kg
[14] = target: T1, 5-hydroxytryptamine receptor 2A; assay: Antagonist activity at 5-HT2A receptor (unknown origin) by calcium mobilization assay; type: functional; conditions: filed as antagonist
[15] = Clearance in rat at 1 mg/kg, iv; type: ADME, organism-based; conditions: in vivo
[16] = In vivo antagonist activity at 5-HT7 receptor in po dosed rat assessed as inhibition of 5-CT induced hypothermia compound administered 20 mins prior to 5-CT injection and measured after 1 hr; type: functional; conditions: 1.333 h, time 80 min
[17] = AUC in rat brain at 10 mg/kg, po; type: ADME, organism-based; design: dose 10 mg/kg
[18] = Protein binding in human plasma assessed as unbound fraction; type: ADME, cell-free
[19] = Clearance in rat brain at 10 mg/kg, po; type: ADME, organism-based; conditions: in vivo
[20] = target: 5-hydroxytryptamine receptor 7 (Homo sapiens, UniProt P34969); assay: Inverse agonist activity at 5-HT7 receptor (unknown origin) by cAMP functional assay
[21] = Oral bioavailability in dog; type: ADME, organism-based, Canis lupus familiaris; conditions: in vivo
[22] = Cmax in rat at 3 mg/kg, sc; type: ADME, organism-based; design: route subcutaneous, dose 3 mg/kg; conditions: in vivo
[23] = Tmax in dog at 10 mg/kg, po; type: ADME, organism-based, Canis lupus familiaris; conditions: in vivo
[24] = Tmax in rat plasma at 10 mg/kg, po; type: ADME, organism-based
[25] = Ratio of drug level in rat brain to plasma at 10 mg/kg, po; type: ADME, organism-based; conditions: brain and plasma, read-out: BPR
[26] = Half life in rat plasma at 10 mg/kg, po; type: ADME, organism-based
[27] = Clearance in rat at 3 mg/kg, sc; type: ADME, organism-based; conditions: in vivo
[28] = Plasma concentration that yields to require for maximal inhibition of 5-HT7 receptor mediated hypothermia in 5-CT-stimulated rat at 0.3 mg/kg, po compound administered 20 mins prior to 5-CT injection; type: organism-based
Cytochrome P450 = assay: Inhibition of CYP450 (unknown origin) up to 10 uM; type: ADME, protein assay; conditions: human
[29] = Half life in rat at 1 mg/kg, iv; type: ADME, organism-based; conditions: in vivo
[30] = Clearance in rat at 3 mg/kg, po; type: ADME, organism-based; conditions: in vivo
[31] = AUC in rat at 3 mg/kg, po; type: ADME, organism-based; design: dose 3 mg/kg; conditions: in vivo
[32] = Metabolic stability in rat liver microsomes assessed as half life; type: ADME, Microsome
[33] = Half life in rat at 3 mg/kg, sc; type: ADME, organism-based; conditions: in vivo
[34] = Cmax in rat plasma at 10 mg/kg, po; type: ADME, organism-based; design: route oral, dose 10 mg/kg
[35] = AUC in rat at 3 mg/kg, sc; type: ADME, organism-based; design: dose 3 mg/kg; conditions: in vivo
[36] = Tmax in rat at 3 mg/kg, po; type: ADME, organism-based; conditions: in vivo
[37] = Half life in rat at 3 mg/kg, po; type: ADME, organism-based; conditions: in vivo
[38] = Cmax in dog at 10 mg/kg, po; type: ADME, organism-based, Canis lupus familiaris; design: route oral, dose 10 mg/kg; conditions: in vivo
[39] = Oral bioavailability in monkey; type: ADME, organism-based, Macaca mulatta; conditions: rhesus monkey, in vivo
[40] = Tmax in non-human primates at 5 mg/kg, po; type: ADME, organism-based; conditions: in vivo
[41] = Protein binding in rat plasma assessed as unbound fraction; type: ADME, cell-free
[42] = Cmax in non-human primates at 5 mg/kg, po; type: ADME, organism-based; design: route oral, dose 5 mg/kg; conditions: in vivo
[43] = Clearance in rat plasma at 10 mg/kg, po; type: ADME, organism-based
[44] = Half life in non-human primates at 5 mg/kg, po; type: ADME, organism-based; conditions: in vivo
[45] = Efflux ratio of apparent permeability in human Caco2 cells; type: ADME, cell-based; conditions: Caco-2
Rattus norvegicus = assay: In vivo antagonist activity at 5-HT7 receptor in rat assessed as maximal inhibition of 5-CT induced hypothermia at 0.3 mg/kg, po compound administered 20 mins prior to 5-CT injection; type: functional, organism-based
[46] = Cmax in rat at 3 mg/kg, po; type: ADME, organism-based; design: route oral, dose 3 mg/kg; conditions: in vivo
[47] = In vivo antagonist activity at 5-HT2A receptor in po dosed mouse assessed as inhibition of DOI-induced head twitch measured after 60 mins; type: functional; conditions: 1 h
[48] = Ex vivo receptor occupancy at 5-HT2A receptor in orally dosed rat frontal cortex measured after 1 hr; type: functional; conditions: po
[49] = Tmax in rat at 3 mg/kg, sc; type: ADME, organism-based; conditions: in vivo
[50] = Tmax in rat brain at 10 mg/kg, po; type: ADME, organism-based
[51] = AUC in rat at 1 mg/kg, iv; type: ADME, organism-based; design: dose 1 mg/kg; conditions: in vivo
[52] = Metabolic stability in human liver microsomes assessed as half life; type: ADME, Microsome

5-hydroxytryptamine receptor 7 (Rattus norvegicus, UniProt P32305), sequence (P32305 whole entry): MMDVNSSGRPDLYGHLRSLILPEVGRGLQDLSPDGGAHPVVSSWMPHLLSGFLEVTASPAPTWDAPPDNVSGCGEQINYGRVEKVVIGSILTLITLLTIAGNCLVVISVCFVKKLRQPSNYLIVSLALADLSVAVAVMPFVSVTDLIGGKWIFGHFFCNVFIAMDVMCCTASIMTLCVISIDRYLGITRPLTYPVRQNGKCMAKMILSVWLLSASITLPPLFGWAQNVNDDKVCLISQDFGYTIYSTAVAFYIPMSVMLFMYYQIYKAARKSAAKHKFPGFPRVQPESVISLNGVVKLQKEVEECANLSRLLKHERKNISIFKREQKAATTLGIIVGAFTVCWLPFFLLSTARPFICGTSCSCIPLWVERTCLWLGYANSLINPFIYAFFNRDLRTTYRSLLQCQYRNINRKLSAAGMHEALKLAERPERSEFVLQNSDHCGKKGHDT
T1 sequence (P28223 whole entry): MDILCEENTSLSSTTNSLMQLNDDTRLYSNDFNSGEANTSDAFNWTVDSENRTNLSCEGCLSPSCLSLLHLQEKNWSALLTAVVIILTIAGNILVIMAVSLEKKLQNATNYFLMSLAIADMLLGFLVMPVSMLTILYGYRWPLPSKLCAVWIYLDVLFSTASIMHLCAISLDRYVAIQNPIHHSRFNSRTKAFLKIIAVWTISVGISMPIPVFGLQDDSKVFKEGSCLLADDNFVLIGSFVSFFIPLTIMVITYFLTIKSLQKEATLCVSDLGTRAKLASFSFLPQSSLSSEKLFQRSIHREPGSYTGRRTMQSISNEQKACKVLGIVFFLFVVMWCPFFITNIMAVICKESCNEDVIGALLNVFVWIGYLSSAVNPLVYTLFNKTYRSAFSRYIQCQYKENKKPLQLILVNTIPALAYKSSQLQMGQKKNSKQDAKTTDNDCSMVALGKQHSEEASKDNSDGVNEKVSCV
5-hydroxytryptamine receptor 2B, sequence (P41595 whole entry): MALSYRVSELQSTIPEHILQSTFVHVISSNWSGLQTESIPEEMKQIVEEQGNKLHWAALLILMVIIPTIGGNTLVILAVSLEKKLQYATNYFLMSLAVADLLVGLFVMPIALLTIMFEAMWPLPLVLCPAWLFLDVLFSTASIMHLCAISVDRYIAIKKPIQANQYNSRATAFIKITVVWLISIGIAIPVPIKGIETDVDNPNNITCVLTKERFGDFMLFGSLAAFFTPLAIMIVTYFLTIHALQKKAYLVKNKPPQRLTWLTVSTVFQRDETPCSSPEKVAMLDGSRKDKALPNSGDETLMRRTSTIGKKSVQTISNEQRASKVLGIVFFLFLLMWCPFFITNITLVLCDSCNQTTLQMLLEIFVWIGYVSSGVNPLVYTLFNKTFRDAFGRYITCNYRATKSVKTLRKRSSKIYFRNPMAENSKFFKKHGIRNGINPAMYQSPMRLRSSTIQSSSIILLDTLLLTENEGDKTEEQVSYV
5-hydroxytryptamine receptor 7 (Homo sapiens, UniProt P34969), sequence (P34969 whole entry): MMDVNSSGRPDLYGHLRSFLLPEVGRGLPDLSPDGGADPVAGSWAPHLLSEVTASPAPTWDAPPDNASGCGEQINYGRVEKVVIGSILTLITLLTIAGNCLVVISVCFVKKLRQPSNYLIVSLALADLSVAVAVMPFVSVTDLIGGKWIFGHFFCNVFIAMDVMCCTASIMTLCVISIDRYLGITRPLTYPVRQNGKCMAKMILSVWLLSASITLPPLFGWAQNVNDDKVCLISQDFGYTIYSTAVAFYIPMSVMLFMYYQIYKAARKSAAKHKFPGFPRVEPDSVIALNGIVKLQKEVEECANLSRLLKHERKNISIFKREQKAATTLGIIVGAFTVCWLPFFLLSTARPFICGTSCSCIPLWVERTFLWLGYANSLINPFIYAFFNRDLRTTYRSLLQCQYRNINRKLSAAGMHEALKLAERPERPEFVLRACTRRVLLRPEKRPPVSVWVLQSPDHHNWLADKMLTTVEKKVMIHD

Ki [1]: 28 nM
Ki [2]: 24 nM
Ki [3]: 530 nM
Ki [4]: 19 nM
Ki [5]: 130 nM
SMILES: CC(C)n1nc2c(c1-c1ccccc1)CCNCC2

Cmax [6]: 1680 ng/mL and 6.1 µM
half-life [7]: 6.3 h
half-life [8]: 10.6 h
AUC [9]: 57 µM·h
bioavailability [10]: 100%
bioavailability [11]: 98%
pKb [14]: 8.1
Ki [1]: 8 nM
clearance [15]: 6.67 mL/min
AUC [17]: 89 µM·h
fraction unbound [18]: 0.3
CL [19]: 0.1 L/h
IC50 [20]: 100 nM
bioavailability [21]: 98%
Cmax [22]: 260 ng/mL and 940 nM
Ki [2]: 8 nM
Tmax [23]: 0.5 h
Tmax [24]: 1 h
Kp [25]: > 1
half-life [26]: 6 h
CL/F [27]: 6.67 mL/min
concentration at 20 min [28]: 27 ng/mL
inhibition (INH) (Cytochrome P450): Not Active
half-life [29]: 3.4 h
CL/F [30]: 6.67 mL/min
AUC [31]: 9.2 µM·h
half-life [32]: > 1 h
half-life [33]: 3.9 h
Cmax [34]: 1080 ng/mL and 3.9 µM
AUC [35]: 7.7 µM·h
Tmax [36]: 1.7 h
half-life [37]: 4.3 h
Cmax [38]: 2000 ng/mL
bioavailability [39]: 72%
Tmax [40]: 3 h
fraction unbound [41]: 0.2
Cmax [42]: 300 ng/mL
CL/F [43]: 3.33 mL/min
half-life [44]: 11.4 h
efflux ratio [45]: 1.3
Cmax [46]: 190 ng/mL and 700 nM
Ki [3]: 170 nM
Ki [4]: 19 nM
Ki [5]: 49 nM
Tmax [49]: 0.75 h
Tmax [50]: 1 h
AUC [51]: 2.8 µM·h
half-life [52]: > 1 h
SMILES: CC(C)n1nc2c(c1-c1ccc(F)cc1)CCNCC2
selectivity ratio [12]: 30
Activity [13]: Non-Toxic
ED50 [16]: 0.05 mg/kg
inhibition (Rattus norvegicus): Active
ED50 [47]: 0.3 mg/kg
ED50 [48]: 0.8 mg/kg

Ki [2]: 3 nM
Ki [3]: 500 nM
Ki [4]: 3 nM
SMILES: c1ccc(-c2c3c(nn2C2CCC2)CCNCC3)cc1

Ki [1]: 15 nM
Ki [2]: 2 nM
Ki [3]: 130 nM
Ki [4]: 5 nM
SMILES: CC(C)n1nc2c(c1-c1ccc(C(F)(F)F)cc1)CCNCC2
